Experimental data: patent publication US4469691A, “Hexamethylenetetramine-N-acetyl-thiazolidine-4-carboxylate, a process for its preparation and a pharmaceutical composition containing it” (Ausonia Farmaceutici s.r.l., priority 1982, dated 1984)
Like-named read-outs stand apart in the source and are kept apart here.

Columns and labels:
Serratia spp = test: In vitro antibacterial activity, M.I.C., Serratia spp; format: cell-based; details: of 5 strains, pH 5.5
Experimental: Serratia spp (5 strains)
(§1) As culture medium, Mueller Hinton Agar at pH 5.5 was used. The compounds under examination were dissolved in and diluted by sterile saline; 1 ml of the diluted solutions thus obtained was poured in Petri's dishes and 19 ml of Mueller Hinton Agar were subsequently added thereto.
(§2) The inoculation of bacteria was performed using a multi point inoculator and a 18 hour growth broth culture of each of the strains under examination. With this method the bacterial inoculum is equal to about 10^5 colony-forming units (CFU) per point. Reading of the results was performed after cultivating the plates for 18 hours at 37° C.

Klebsiella spp = test: In vitro antibacterial activity, M.I.C., Klebsiella spp; format: cell-based; details: of 7 strains, pH 5.5
Experimental: Klebsiella spp (7 strains)
as §1, §2

Salmonella spp = test: In vitro antibacterial activity, M.I.C., Salmonella spp; format: cell-based; details: of 10 strains, pH 5.5
Experimental: Salmonella spp (10 strains)
as §1, §2

[1] = system: 90 strains of different Gram-positive and Gram-negative bacterial species; test: In vitro antibacterial activity, all 90 strains; format: cell-based, Gram-positive and Gram-negative bacteria; details: for Antibacterial activity (in words): all microorganisms, AFP 829 versus EMTA
Experimental: as §1, §2

Streptococcus = test: In vitro antibacterial activity, M.I.C., Streptococcus (pyogenes); format: cell-based; details: of 15 strains, pH 5.5
Experimental: as §1, §2

strain of Ps. aeruginosa = system: strain of Ps. aeruginosa; parameters: species or system Sprague Dawley rats; Ps. aeruginosa; details: rat, in vivo, ip
Experimental: Each group of animals received the substances i.p. in […] of sterile saline; the animals were placed in metabolic cages with free access to water. Urine samples were collected at the following intervals:
1 ml of nutrient broth at pH 5.5, containing approximately […] colony-forming units of a strain of Ps. aeruginosa sensitive to the action of both substances, was added to 1 ml of the urine or the standard solution of the two drugs dissolved in distilled water.
Standard and urine samples were sequentially diluted twofold by means of the same broth containing the microorganisms until a 1:2048 dilution was achieved.
After overnight incubation at 37° C. the maximum dilution (limit dilution) of the substances or samples inhibiting bacterial growth was determined.
Therefore the concentration of the substances in the urine samples was determined using the formula below: [formula]

liver affections = test: Protective activity against liver affections
Enterococcus = test: In vitro antibacterial activity, M.I.C., Enterococcus (Streptococcus faecalis); format: cell-based; details: of 5 strains, pH 5.5
Experimental: as §1, §2

Proteus spp = test: In vitro antibacterial activity, M.I.C., Proteus spp; format: cell-based; details: of 10 strains, pH 5.5
Experimental: Proteus spp (10 strains)
as §1, §2

male Wistar rats = test: Mucosecretolytic activity in male Wistar rats (method of H. Mawatari); format: in vivo, rat; details: for % increase of sodium fluorescein compared with controls: 250 mg/Kg p.o., 10 animals; for Mucosecretolytic activity (in words): oral, rats
Experimental: Mucosecretolytic activity was determined in male Wistar rats after AFP 829 administration given via the oral route. The method described by H. Mawatari was used for the determination [H. Mawatari, Kagoshima Daiagaku, Igaku Zasshi 27, 561 (1976)]. A drug of known activity--carboxymethylcysteine--was used as the reference standard.

[2] = in vivo, po
Staphylococcus aureus = test: In vitro antibacterial activity, M.I.C., Staphylococcus aureus; format: cell-based; details: of 15 strains, pH 5.5
Experimental: as §1, §2

Swiss mice = test: Acute oral toxicity in Swiss mice (Litchfield and Wilcoxon); format: in vivo; details: mouse
Citrobacter spp = test: In vitro antibacterial activity, M.I.C., Citrobacter spp; format: cell-based; details: of 3 strains, pH 5.5
Experimental: Citrobacter spp (3 strains).
as §1, §2

Wistar rats = test: Acute oral toxicity in Wistar rats (Litchfield and Wilcoxon); format: in vivo; details: rat
E. coli = test: In vitro antibacterial activity, M.I.C., E. coli; format: cell-based; details: of 10 strains, pH 5.5
Experimental: as §1, §2

Pseudomonas aeruginosa = test: In vitro antibacterial activity, M.I.C., Pseudomonas aeruginosa; format: cell-based; details: 62.5 mcg/ml (EMTA; AFP 829 equimolar); of 10 strains; pH 5.5
Experimental: as §1, §2

[3] = in vivo; cited from earlier work
[4] = Pharmacokinetics in laboratory animals after oral administration
[5] = Acute oral toxicity in Swiss mice (Litchfield and Wilcoxon); format: in vivo; details: in vivo, mouse
[6] = Acute oral toxicity in Wistar rats (Litchfield and Wilcoxon); format: in vivo; details: in vivo, rat
[7] = 62.5 mcg/ml (EMTA; AFP 829 equimolar)
[8] = 125 mcg/ml (EMTA; AFP 829 equimolar)
[9] = 31.2 mcg/ml (EMTA; AFP 829 equimolar)
[10] = listed as hexamethylenetetramine-N-acetyl-thiazolidine-4-carboxylate (I)
[11] = 15.6 mcg/ml (EMTA; AFP 829 equimolar)
[12] = 250 mcg/ml (EMTA; AFP 829 equimolar)

Compound | M.I.C., cumulative number of strains inhibited (Serratia spp; [7]) | M.I.C., cumulative number of strains inhibited (Serratia spp; [8]) | M.I.C., cumulative number of strains inhibited (Klebsiella spp; [7]) | M.I.C., cumulative number of strains inhibited (Salmonella spp; [7]) | Antibacterial activity (in words) [1] | M.I.C., cumulative number of strains inhibited (Streptococcus; [11]) | M.I.C., cumulative number of strains inhibited (Streptococcus; [7]) | M.I.C., cumulative number of strains inhibited (Streptococcus; [8]) | M.I.C., cumulative number of strains inhibited (Enterococcus; [7]) | M.I.C., cumulative number of strains inhibited (Proteus spp; [7]) | % increase of sodium fluorescein compared with controls (male Wistar rats) | M.I.C., cumulative number of strains inhibited (Staphylococcus aureus; [7]) | M.I.C., cumulative number of strains inhibited (Staphylococcus aureus; [8]) | M.I.C., cumulative number of strains inhibited (Citrobacter spp; [7]) | M.I.C., cumulative number of strains inhibited (E. coli; [7]) | M.I.C., cumulative number of strains inhibited (Pseudomonas aeruginosa) | LD50 [5] | LD50 [6] | further results
C1N2CN3CN1CN(C2)C3.CC(=O)N1CSCC1C(=O)O (centres unmarked) [AFP 829, hexamethylenetetramine-N-acetyl-thiazolidine-4-carboxylate] | 4 strains | 5 strains | 7 strains | 10 strains | active in comparison with all of the microorganisms used | 5 strains | 12 strains | 15 strains | 5 strains | 10 strains | 96.1% | 13 strains | 15 strains | 3 strains | 10 strains | 10 strains |  |  | M.I.C., cumulative number of strains inhibited (Salmonella spp; [9]): 1 strains; M.I.C.: no microorganism resistant to concentrations higher than ([1]; all microorganisms used, pH 5.5): ≤ 125 µg/mL; Antibacterial activity (in words) [1, 10]: higher antibacterial activity than hexamethylenetetramine; Concentration in urine (strain of Ps. aeruginosa; 1.5 h): 2000 mcg/ml of urine; Concentration in urine (strain of Ps. aeruginosa; 2.5 h): 4000 mcg/ml of urine; Concentration in urine (strain of Ps. aeruginosa; 4.5 h): 4000 mcg/ml of urine; Concentration in urine (strain of Ps. aeruginosa; 6.5 h): 1000 mcg/ml of urine; Protective activity against liver affections (in words) (liver affections): protective activity against liver affections; M.I.C., cumulative number of strains inhibited (Enterococcus; [9]): 1 strains; M.I.C., cumulative number of strains inhibited (Proteus spp; [9]): 3 strains; Mucosecretolytic activity (in words) (male Wistar rats): powerful mucosecretolytic activity, markedly higher than the standard substance; Mucosecretolytic activity (in words) (male Wistar rats; [10]): remarkable mucosecretolytic properties; Occurrence in urine (in words) [2]: selectively occur in the urine along with the active metabolites thereof; LD50 (Swiss mice): 1350 mg/kg; LD50 (Wistar rats): 2100 mg/kg
C1N2CN3CN1CN(C2)C3 [EMTA, hexamethylenetetramine] | 4 strains | 5 strains | 6 strains | 9 strains | slightly less active | 7 strains | 11 strains | 13 strains | 4 strains | 10 strains |  | 10 strains | 14 strains | 1 strains | 8 strains | 10 strains | 1500 mg/kg | 1050 mg/kg | M.I.C., cumulative number of strains inhibited (Klebsiella spp; [8]): 7 strains; M.I.C., cumulative number of strains inhibited (Salmonella spp; [8]): 10 strains; M.I.C., cumulative number of strains inhibited (Streptococcus; [12]): 14 strains; M.I.C., cumulative number of strains inhibited (Streptococcus; 500 mcg/ml (EMTA; AFP 829 equimolar)): 15 strains; M.I.C., cumulative number of strains inhibited (Enterococcus; [8]): 5 strains; Converted to formaldehyde in acid urine [3]: about 15%; Eliminated unchanged in the urine [3]: 90%; M.I.C., cumulative number of strains inhibited (Staphylococcus aureus; [12]): 15 strains; Occurrence in urine (in words) [4]: selectively occur in the urine along with the active metabolites thereof; M.I.C., cumulative number of strains inhibited (Citrobacter spp; [8]): 3 strains; M.I.C., cumulative number of strains inhibited (E. coli; [8]): 10 strains
O=C(O)C1CSCN1 (centres unmarked) [TCA, thiazolidine-4-carboxylic acid] |  |  |  |  |  |  |  |  |  |  |  |  |  |  |  |  | 400 mg/kg | 800 mg/kg | 
carboxymethylcysteine |  |  |  |  |  |  |  |  |  |  | 33.4% |  |  |  |  |  |  |  | 
